Assay results from patent publication US5519163A, “Inhibitors of phosphoinositide-specific phospholipase C” (Merck & Co., Inc., priority 1993, dated 1996).
pIC50: −log10 of the molar value.

Target: T1, PLCγ1 (Rattus norvegicus, UniProt P10686)
T1 construct: made in house; host or cells: E. coli BL21 (DE3), plasmid pT5T-PLC4 (ATCC 69421)
T1 sequence (P10686 with tags, fused parts or gaps): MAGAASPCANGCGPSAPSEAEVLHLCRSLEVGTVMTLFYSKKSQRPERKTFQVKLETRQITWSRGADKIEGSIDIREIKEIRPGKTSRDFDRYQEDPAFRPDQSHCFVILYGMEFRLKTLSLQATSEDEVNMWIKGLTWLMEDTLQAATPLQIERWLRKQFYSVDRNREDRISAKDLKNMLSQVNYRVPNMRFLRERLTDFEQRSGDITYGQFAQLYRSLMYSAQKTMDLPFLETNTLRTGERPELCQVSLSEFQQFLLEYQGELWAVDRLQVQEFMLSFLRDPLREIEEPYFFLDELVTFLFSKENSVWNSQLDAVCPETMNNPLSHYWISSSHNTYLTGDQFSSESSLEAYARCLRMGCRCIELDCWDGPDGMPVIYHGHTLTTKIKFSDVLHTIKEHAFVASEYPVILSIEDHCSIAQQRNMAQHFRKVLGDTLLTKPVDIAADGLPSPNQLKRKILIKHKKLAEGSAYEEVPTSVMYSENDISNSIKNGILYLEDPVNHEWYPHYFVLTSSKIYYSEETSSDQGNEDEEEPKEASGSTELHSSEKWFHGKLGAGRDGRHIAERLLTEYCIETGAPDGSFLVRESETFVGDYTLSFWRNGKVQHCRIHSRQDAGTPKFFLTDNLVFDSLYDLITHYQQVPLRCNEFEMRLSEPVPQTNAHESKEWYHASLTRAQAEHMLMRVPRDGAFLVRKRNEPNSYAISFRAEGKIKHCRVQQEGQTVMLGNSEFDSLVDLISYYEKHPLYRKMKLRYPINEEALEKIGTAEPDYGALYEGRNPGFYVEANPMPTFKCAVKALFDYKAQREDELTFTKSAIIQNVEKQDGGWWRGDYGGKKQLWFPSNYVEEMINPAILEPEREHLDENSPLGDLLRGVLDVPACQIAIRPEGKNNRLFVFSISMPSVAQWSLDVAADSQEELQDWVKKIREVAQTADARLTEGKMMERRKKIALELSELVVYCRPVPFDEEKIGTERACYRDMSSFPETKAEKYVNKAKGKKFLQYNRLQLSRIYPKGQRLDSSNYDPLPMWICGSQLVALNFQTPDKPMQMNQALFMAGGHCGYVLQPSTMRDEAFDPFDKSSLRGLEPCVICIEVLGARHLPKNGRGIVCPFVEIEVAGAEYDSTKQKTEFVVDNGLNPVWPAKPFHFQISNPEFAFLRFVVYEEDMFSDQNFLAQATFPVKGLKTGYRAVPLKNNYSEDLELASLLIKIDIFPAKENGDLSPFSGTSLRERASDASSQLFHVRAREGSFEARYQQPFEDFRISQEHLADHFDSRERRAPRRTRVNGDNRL
Experiment: Inhibition of purified recombinant PLCγ1 ([3H]-phosphatidyl inositol hydrolysis)
Format: biochemical
Conditions: PLCγ1, 30° C., phosphatidyl inositol substrate; Tables 1 and 2
Excerpt: Subcloning of the PLCγ Coding Sequence. Rat brain cDNA is synthesized using rat brain poly(A)RNA as template by literature protocol (Sanbrook, J. et al., Molecular Cloning: A Laboratry Manual, Cold Spring Harbor Laboratory Press, Cold Spring Harbor, N.Y.). From the published cDNA sequence of rat brain PLCγ1 (Suh, P.-G., Ryu, S. H., Moon, K. H., Suh, H. W., & Rhee, S. G. (1988) Proc. Natl. Acad. Sci. USA 85, 5419-5423), PCR primers, one which contains a BamHI restriction site upstream of the sequence complementary to the 5' end of the PLCγ1 gene (primer 01), and the other one which contains a HindIII site downsteam of the 3' end of the PLCγ gene (primer 04), were synthesized. Carrying out the PCR using these primers (01 and 04) with the above mentioned rat brain cDNA as template, a DNA fragment with the entire rat brain PLCγ1 coding sequence, flanked by a 5' BamHI site and a 3' HindIII site, is generated. This BamHI-HindIII fragment containing the coding sequence of PLCγ was subcloned into pBSII(S/K)+, generating pPLC1. The rest of the manipulations were accomplished using PCR to generate the appropriate DNA fragment. […]

pIC50 | Compound
< 3.52 | O=P(O)(O)C(O)c1ccc(Oc2ccccc2)cc1 (stereo not shown) [reference compound]

System: PLCβ
Experiment: Inhibition of PLCβ purified from bovine brain (assay mixture as in Example 12)
Format: biochemical
Conditions: PLCβ from bovine brain substituted for PLCγ; Tables 3 and 4
Method: Assay of purified PLCγ1 activitiy. Activity of the purified PLCγ1 was assayed at 30° C. Reactions were never allowed to proceed to more than 10% completion based on the limiting substrate. A typical reaction contained the following: 50 mM HEPES pH7.5, 0.1% Deoxycholate, 3 mM CaCl2, 1 mM EGTA, 0.1 mM DTT with phosphatidyl inositol (1-1000 μM) (PI) and 0.02 uCi [^3 H]-phosphatidyl inositol (PI) as substrate. The phospholipid components were dried under a gentle stream of nitrogen and resuspended in assay buffer. The substrate mix is then vortexed and sonicated (10 sec. with probe sonicator) to disperse the lipid and form micelles. After thermally preequilibrating the assay mixture in the absence of enzyme, the reaction was initiated by adding PLCγ1. Reactions containing 0.2 ml aliquots were terminated by addition of 1/4 volume 1N HCl, 5 mM EGTA and transferred to an ice bath. The quenched reactions are then filtered through a Q sepharose (Pharmacia) column. To prepare the Q sepharose column 1 ml of Q Sepharose slurry is added to a disposable plastic column. The resin is equilibrated by passing through 20 ml of 10 mM NH4 H2 PO4, pH 3.5. The quenched reaction, typically 200 μl, is applied to the column and 3 ml of 10 mM NH4 H2 PO4, pH 3.5 is added, the flow through from this step is collected in a scintillation vial, mixed with 10 ml of scintillation fluid and counted in a Beckman LS3801 scintillation counter.
PLC-β are obtained as described by S. G. Rhee et al., Meth. Enzym., 197:502-511 (1991). Specifically PLC-δ is purified from the cytosolic fraction of bovine brains, while PLC-β is mainly obtained from the particulate fraction. However, since the particulate and cytosolic forms of PLC-β are identical with respect to amino acid sequence, PLC-β-containing fractions pooled during the purification of the cytosolic PLC-δ are combined with the PLC-β fraction from the particulate fraction. A total of 36 bovine brains are used for the purification. Twelve brains are processed at one time.
Step 8: Ion-Exchange Chromatography of PLC-β on DEAE-Cellulose. Because of turbidity, the combined protein solution from Steps 2 and 3 cannot be chromatographed on a DEAE-cellulose column directly. Therefore, two stages of DEAE-cellulose chromatography, a batch procedure followed by a column step, are employed. In the batch step, all of the combined proteins are absorbed on 2 liters of DEAE-cellulose equilibrated with 20 mM Tris-HCl, pH 7.6, containing 5 mM EGTA and 0.1 mM DTT. The DEAE-cellulose slurry is stirred and then collected in a 4-liter sintered glass (coarse) filter funnel. The DEAE-cellulose is washed with the equilibration buffer until it is free of turbid lipid materials and unbound protein. For the column procedure, the washed DEAE-cellulose is removed from the filter funnel, mixed with the equilibration buffer, and poured onto a column already containing a 10 cm high bed of equilibrated DEAE-cellulose (final dimension, 8×45 cm). The column is eluted at a flow rate of 8 ml/min with an 8-liter linear gradient from 0 to 300 mM KCl buffer containing 50 mM Tris-HCl, pH 7.6, 1 mM EGTA, and 0.1 mM DTT. The activity peak is eluted at a KCl concentration of 110 mM. The peak fractions (600 ml) are pooled.
Step 9: Heparin-Agarose Chromatography of PLC-β. The pooled fraction from Step 8 (600 ml) is applied to a heparin-agarose column (5×25 cm) equilibrated with 20 mM HEPES, pH 7.0, 100 mM NaCl, 0.1 mM DTT, and 1 mM EGTA. The column is eluted with a linear gradient from 100 to 500 mM NaCl in 1.5 liters of equilibrium buffer. Peak fractions (310 ml) are pooled and concentrated on an Amicon filter to 27 ml.
Step 10: Reversed-Phase Chromatography of PLC-β on TSK Phenyl-5-PW. Solid KCl is added to the concentrated fractions from Step 9 to give a concentration of 3M, and the mixtures are centrifuged to remove denatured proteins. […]

pIC50 | Compound
4.19 | O=P(O)(O)C(O)c1cccc(Oc2ccc(Cl)cc2)c1 (stereo not shown) [Example 4, 1-Hydroxy-1-(3-(4-chlorophenoxy)phenyl)methylphosphonic acid]
4.13 | CCc1cccc(Oc2ccc(C(O)P(=O)(O)O)cc2)c1 (stereo not shown) [Example 10, 1-Hydroxy-1-(4-(3-ethylphenoxy)phenyl)methylphosphonic acid]
4.62 | O=P(O)(O)C(O)c1cccc(Oc2cccc(Cl)c2)c1 (stereo not shown) [Example 1, 1-Hydroxy-1-(3-(3-chlorophenoxy)phenyl)methylphosphonic acid]
4.42 | O=P(O)(O)C(O)c1cccc(Oc2ccccc2Cl)c1 (stereo not shown) [Example 5, 1-Hydroxy-1-(3-(2-chlorophenoxy)phenyl)methylphosphonic acid]
3.14 | COc1ccc(Oc2cccc(C(O)P(=O)(O)O)c2)cc1 (stereo not shown) [Example 6, 1-Hydroxy-1-(3-(4-methoxyphenoxy)phenyl)methylphosphonic acid]
< 3.52 | O=P(O)(O)C(O)c1ccc(Oc2ccccc2)cc1 (stereo not shown) [reference compound]
4.96 | COc1cccc(Oc2ccc(C(O)P(=O)(O)O)cc2)c1 (stereo not shown) [Example 11, 1-Hydroxy-1-(4-(3-methoxyphenoxy)phenyl)methylphosphonic acid]
3.96 | O=P(O)(O)C(O)c1cccc(Oc2ccc(Cl)c(Cl)c2)c1 (stereo not shown) [Example 3, 1-Hydroxy-1-(3-(3,4-dichlorophenoxy)phenyl)methylphosphonic acid]
< 3.52 | O=P(O)(O)C(O)c1cccc(Oc2ccccc2)c1 (stereo not shown) [Example 2, 1-Hydroxy-1-(3-phenoxyphenyl)methylphosphonic acid]
4.51 | Cc1ccc(Oc2cccc(C(O)P(=O)(O)O)c2)cc1 (stereo not shown) [Example 7, 1-Hydroxy-1-(3-(4-methylphenoxy)phenyl)methylphosphonic acid]
5.05 | O=P(O)(O)C(O)c1ccc(Oc2cccc(Cl)c2)cc1 (stereo not shown) [Example 9, 1-Hydroxy-1-(4-(3-chlorophenoxy)phenyl)methylphosphonic acid]
5.15 | O=P(O)(O)C(O)c1cccc(Oc2ccc(O)cc2)c1 (stereo not shown) [Example 8, 1-Hydroxy-1-(3-(4-hydroxyphenoxy)phenyl)methylphosphonic acid]
